Measurements as given in patent US6552060B1, “Asymmetric disulfides and methods of using same” (Prolx Pharmaceuticals, Inc., priority 1997, dated 2003).
pIC50: −log10 of the molar value.

System: EMT6 mouse mammary tumor cells
Assay: Cytotoxicity against EMT6 cells in culture (MTT)
Conditions: read-out: Disulfide Cytotoxicity (IC50), Table 5, 48 h exposure

SMILES	pIC50
CC(C)SSc1nc(N)nc2[nH]cnc12 [Compound E-6]	4.38
CC(C)SSc1ncnc2[nH]cnc12 [Compound E-7]	< 3.74
CC(C)SSc1nc2ccccc2[nH]1 [Compound E-8]	4.18
Cc1ccc2[nH]c(SSC(C)C)nc2c1 [Compound E-9]	< 3.74
CC(C)SSc1nc2cc([N+](=O)[O-])ccc2[nH]1 [Compound E-10]	4.54
CC(C)SSc1nc2ccccc2o1 [Compound E-12]	< 3.74
CC(C)SSc1ccccc1 [Compound E-13]	< 3.74
COc1cccc(CSSC(C)C)c1 [Compound E-20]	< 3.74
CC(C)SSC(C)c1ccccc1 (stereo not drawn) [Compound E-22]	< 3.74
CC(C)SSCC(C)C(=O)N1CCCC1C(=O)O (stereo not drawn) [Compound E-28]	< 3.74
CCC(C)SSc1nc(N)nc2[nH]cnc12 (stereo not drawn) [Compound F-6]	4.64
CCC(C)SSc1ccccc1 (stereo not drawn) [Compound F-13]	< 3.74
CCC(C)SSC1=NCCS1 (stereo not drawn) [Compound F-25]	4.51
CCC(C)SSCC(C)C(=O)N1CCCC1C(=O)O (stereo not drawn) [Compound F-28]	< 3.74
ClCCCSSc1ncc[nH]1 [Compound H-1]	< 3.74
Cn1ccnc1SSCCCCl [Compound H-2]	< 3.74
Cc1nnc(SSCCCCl)s1 [Compound H-3]	< 3.74
ClCCCSSc1ncnc2[nH]cnc12 [Compound H-7]	4.44
ClCCCSSc1nc2ccccc2[nH]1 [Compound H-8]	4.09
Cc1ccc2[nH]c(SSCCCCl)nc2c1 [Compound H-9]	4.18
O=[N+]([O-])c1ccc2[nH]c(SSCCCCl)nc2c1 [Compound H-10]	4.23

SMILES	pIC50
ClCCCSSc1ccccc1 [Compound H-13]	< 3.74
ClCCCSSCc1ccccc1 [Compound H-19]	3.97
COc1cccc(CSSCCCCl)c1 [Compound H-20]	4.04
O=C(O)c1cccnc1SSCCCCl [Compound H-23]	4.16
CC(O)C(C)SSc1ncc[nH]1 (stereo not drawn) [Compound M-1]	4.47
CC(O)C(C)SSc1nccn1C (stereo not drawn) [Compound M-2]	≤ 3.74
Cc1nnc(SSC(C)C(C)O)s1 (stereo not drawn) [Compound M-3]	≤ 3.74
CC(O)C(C)SSc1nc(N)nc2[nH]cnc12 (stereo not drawn) [Compound M-6]	4.49
CC(O)C(C)SSc1ncnc2[nH]cnc12 (stereo not drawn) [Compound M-7]	≤ 3.74
CC(O)C(C)SSc1nc2ccccc2[nH]1 (stereo not drawn) [Compound M-8]	≤ 3.74
Cc1ccc2[nH]c(SSC(C)C(C)O)nc2c1 (stereo not drawn) [Compound M-9]	4.12
CC(O)C(C)SSc1nc2cc([N+](=O)[O-])ccc2[nH]1 (stereo not drawn) [Compound M-10]	4.47
CC(O)C(C)SSc1nc2ccccc2o1 (stereo not drawn) [Compound M-12]	4.54
CC(O)C(C)SSCc1ccccc1 (stereo not drawn) [Compound M-19]	4.04
CC(SSC(C)C(C)O)c1ccccc1 (stereo not drawn) [Compound M-22]	≤ 3.74
CC(O)C(C)SSc1ncccc1C(=O)O (stereo not drawn) [Compound M-23]	4.02
Cc1ccnc(SSC(C)C(C)O)n1 (stereo not drawn) [Compound M-24]	≤ 3.74
CC(CSSC(C)C(C)O)C(=O)N1CCCC1C(=O)O (stereo not drawn) [Compound M-28]	≤ 3.74
O=C(O)CCSSc1nc2ccccc2[nH]1 [Compound N-8]	≤ 3.74
O=C(O)CCSSc1ncccc1C(=O)O [Compound N-23]	4.04

Target: T1, TR/Trx (Homo sapiens, UniProt Q16881)
T1 sequence (Q16881 1-499 isoform Q16881-5): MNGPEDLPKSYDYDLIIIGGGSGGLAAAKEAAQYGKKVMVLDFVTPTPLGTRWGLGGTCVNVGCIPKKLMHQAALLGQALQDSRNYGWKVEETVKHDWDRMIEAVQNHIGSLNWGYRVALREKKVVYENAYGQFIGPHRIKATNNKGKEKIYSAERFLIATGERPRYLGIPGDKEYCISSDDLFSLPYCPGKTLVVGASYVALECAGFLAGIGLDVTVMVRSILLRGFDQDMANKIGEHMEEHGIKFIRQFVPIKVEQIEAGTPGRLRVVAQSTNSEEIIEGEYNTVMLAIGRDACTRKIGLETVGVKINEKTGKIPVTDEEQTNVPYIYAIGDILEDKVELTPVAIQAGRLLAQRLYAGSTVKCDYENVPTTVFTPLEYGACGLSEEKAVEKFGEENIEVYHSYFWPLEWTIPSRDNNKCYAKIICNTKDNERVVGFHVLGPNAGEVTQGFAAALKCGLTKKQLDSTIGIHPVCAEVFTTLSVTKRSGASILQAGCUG
Assay: Thioredoxin dependent reduction of insulin by human thioredoxin reductase and NADPH (IC50 TR/Trx, 96 well)
Type: biochemical
Conditions: Table 3; read-out: IC50 TR/Trx (converted)
Source text: When referring to the particular system being analyzed IC50 is typically followed by an abbreviation referring to that system (i.e., IC50 TR/Trx for the above described thioredoxin redox system which is comprised of thioredoxin reductase and thioredoxin).
A second plate was used for the assessment of biological activity or as a biological screen. Aliquots of disulfides dissolved in DMSO, were be transferred into 96 well plates. The assay to assess their ability to inhibit thioredoxin reductase measures the thioredoxin dependent reduction of insulin by human thioredoxin reductase and NADPH. The effects of the disulfides on the reduction of Trx by TR were measured spectrophotometrically by following the reduction of NADPH at 339 nm with insulin as the final electron acceptor in a buffered mixture of TR, Trx, NADPH and insulin.

IC50	SMILES
57.5 µM	CC(C)CSSc1ncccc1C(=O)O [Compound G-23]

Same assay, conditions: Table 4

Disulfide inhibition of TR/Trx (IC50 TR/Trx)	SMILES
75 µg/mL	CCSSc1nnc(C)s1 [Compound A-3]
35 µg/mL	CCSSc1nnc(S)s1 [Compound A-4]
35 µg/mL	CCSSc1ncccc1C(=O)O [Compound A-23]
90 µg/mL	CCSSc1nccc(C)n1 [Compound A-24]
75 µg/mL	CCCSSc1nccn1C [Compound B-2]
85 µg/mL	CCCSSc1nnc(C)s1 [Compound B-3]
35 µg/mL	CCCSSc1nnc(S)s1 [Compound B-4]
9 µg/mL	CCCCSSc1nnc(C)s1 [Compound C-3]
56 µg/mL	CCCCSSc1nnc(S)s1 [Compound C-4]
33 µg/mL	CCCCSSc1nc(N)nc2[nH]cnc12 [Compound C-6]
33 µg/mL	CCCCSSc1ncnc2[nH]cnc12 [Compound C-7]
57 µg/mL	CCCCSSc1nc2ccccc2[nH]1 [Compound C-8]
12 µg/mL	CCCCSSc1nc2cc(C)ccc2[nH]1 [Compound C-9]
>76 µg/mL	CCCCSSc1nc2cc([N+](=O)[O-])ccc2[nH]1 [Compound C-10]
42 µg/mL	CCCCSSc1nc2ccccc2o1 [Compound C-12]
>189 µg/mL	CCCCSSCc1ccccc1 [Compound C-19]
61 µg/mL	CCCCSSCc1cccc(OC)c1 [Compound C-20]
179 µg/mL	CCCCSSCc1ccc(OC)cc1 [Compound C-21]
194 µg/mL	CCCCSSC(C)c1ccccc1 (stereo not drawn) [Compound C-22]
65 µg/mL	CCCCSSc1ncccc1C(=O)O [Compound C-23]
48 µg/mL	CCCCSSc1nccc(C)n1 [Compound C-24]
51 µg/mL	CCCCSSC1CCCC1 [Compound C-27]
35 µg/mL	CC(C)SSc1nnc(S)s1 [Compound E-4]
60 µg/mL	CCC(C)SSCc1ccc(OC)cc1 (stereo not drawn) [Compound F-21]
125 µg/mL	CC(C)CSSc1nccn1C [Compound G-2]
29 µg/mL	Cc1nnc(SSCC(C)C)s1 [Compound G-3]

Disulfide inhibition of TR/Trx (IC50 TR/Trx)	SMILES
18 µg/mL	CC(C)CSSc1nc2ccccc2[nH]1 [Compound G-8]
11 µg/mL	Cc1ccc2[nH]c(SSCC(C)C)nc2c1 [Compound G-9]
52 µg/mL	CC(C)CSSc1nc2ccccc2o1 [Compound G-12]
>189 µg/mL	CC(C)CSSCc1ccccc1 [Compound G-19]
>203 µg/mL	COc1ccc(CSSCC(C)C)cc1 [Compound G-21]
201 µg/mL	CC(C)CSSC(C)c1ccccc1 (stereo not drawn) [Compound G-22]
65 µg/mL	Cc1ccnc(SSCC(C)C)n1 [Compound G-24]
100 µg/mL	Cn1ccnc1SSCc1ccccc1 [Compound I-2]
9 µg/mL	Cc1nnc(SSCc2ccccc2)s1 [Compound I-3]
5 µg/mL	Sc1nnc(SSCc2ccccc2)s1 [Compound I-4]
35 µg/mL	O=C(O)c1cccnc1SSCc1ccccc1 [Compound I-23]
35 µg/mL	Cc1ccnc(SSCc2ccccc2)n1 [Compound I-24]
12 µg/mL	CC(SSc1nccn1C)c1ccccc1 (stereo not drawn) [Compound J-2]
11 µg/mL	Cc1nnc(SSC(C)c2ccccc2)s1 (stereo not drawn) [Compound J-3]
42 µg/mL	CC(SSc1nnc(S)s1)c1ccccc1 (stereo not drawn) [Compound J-4]
38 µg/mL	CC(SSc1nc(N)nc2[nH]cnc12)c1ccccc1 (stereo not drawn) [Compound J-6]
8 µg/mL	CC(SSc1nc2ccccc2[nH]1)c1ccccc1 (stereo not drawn) [Compound J-8]
43 µg/mL	Cc1ccc2[nH]c(SSC(C)c3ccccc3)nc2c1 (stereo not drawn) [Compound J-9]
43 µg/mL	CC(SSc1nc2cc([N+](=O)[O-])ccc2[nH]1)c1ccccc1 (stereo not drawn) [Compound J-10]
16 µg/mL	CC(SSc1nc2ccccc2o1)c1ccccc1 (stereo not drawn) [Compound J-12]
>232 µg/mL	CC(SSCc1ccccc1)c1ccccc1 (stereo not drawn) [Compound J-19]
74 µg/mL	COc1cccc(CSSC(C)c2ccccc2)c1 (stereo not drawn) [Compound J-20]
74 µg/mL	COc1ccc(CSSC(C)c2ccccc2)cc1 (stereo not drawn) [Compound J-21]
89 µg/mL	CC(SSc1ncccc1C(=O)O)c1ccccc1 (stereo not drawn) [Compound J-23]
67 µg/mL	Cc1ccnc(SSC(C)c2ccccc2)n1 (stereo not drawn) [Compound J-24]
